Results published in PubChem BioAssay AID248 (DTP/NCI, 2004).
“And” between values parts separate entries of the source, which are not always exact repeats. Identical values can stand only once. Toxic doses and inconclusive results are not listed. No stated cut-off is given here; in the data, active means T/C of 150% or more; inactive means T/C below 125%. Square brackets hold non-standard residues; d marks the D form. Peptide text beside a SMILES is read from it. * marks the point of attachment. ξ: configuration not given here. Cbz = O=C(OCc1ccccc1)*; ξNle = CCCCC(N)C(=O)O

Test system: L1210 leukemia ip in BDF1 mice, survival T/C
Experiment: NCI In Vivo Anticancer Drug Screen. Data for tumor model L1210 Leukemia (intraperitoneal) in B6D2F1 (BDF1) mice
Details: endpoint: mean survival time, higher = longer survival
Outline: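 Transplanted-tumor mice were given test agent; controls received vehicle only. Survival readings from the two groups were divided (treated over control).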

[1] = dose: 100.0 mg/kg/injection, schedule: Q04DX003 (ip), vehicle: Klucel (hydroxypropylcellulose) (HPC)
[2] = dose: 200.0 mg/kg/injection, schedule: Q04DX003 (ip), vehicle: Klucel (hydroxypropylcellulose) (HPC)
[3] = dose: 400.0 mg/kg/injection, schedule: Q04DX003 (ip), vehicle: Klucel (hydroxypropylcellulose) (HPC)
[4] = dose: 100.0 mg/kg/injection, schedule: Q01DX009 (ip), vehicle: saline with Tween-80
[5] = dose: 200.0 mg/kg/injection, schedule: Q01DX009 (ip), vehicle: saline with Tween-80
[6] = dose: 400.0 mg/kg/injection, schedule: Q01DX009 (ip), vehicle: saline with Tween-80
[7] = dose: 200.0 mg/kg/injection, schedule: Q01DX001 (ip), vehicle: saline
[8] = dose: 50.0 mg/kg/injection, schedule: Q04DX003 (ip), vehicle: saline
[9] = dose: 100.0 mg/kg/injection, schedule: Q04DX003 (ip), vehicle: saline
[10] = dose: 200.0 mg/kg/injection, schedule: Q04DX003 (ip), vehicle: saline
[11] = dose: 25.0 mg/kg/injection, schedule: Q01DX009 (ip), vehicle: saline with Tween-80
[12] = dose: 50.0 mg/kg/injection, schedule: Q01DX009 (ip), vehicle: saline with Tween-80
[13] = dose: 100.0 mg/kg/injection, schedule: Q04DX003 (ip), vehicle: saline with Tween-80
[14] = dose: 100.0 mg/kg/injection, schedule: Q01DX001 (ip), vehicle: saline
[15] = dose: 100.0 mg/kg/injection, schedule: Q01DX009 (ip), vehicle: saline

Measured: T/C

CCCCC(NC(=O)CNC(=O)CNC(=O)OCc1ccccc1)C(=O)O (stereo not drawn) (Cbz-Gly-Gly-[ξNle]-OH)
inactive: [1] 108 % of control | [2] 104 % of control | [3] 96 % of control

CCCCOC(=O)c1[nH]cnc1/N=N/N(C)CCCC
inactive: dose: 100.0 mg/kg/injection, schedule: Q01DX001 (ip), vehicle: other 112 % of control | dose: 200.0 mg/kg/injection, schedule: Q01DX001 (ip), vehicle: other 120 % of control

CNC(=O)OCCOc1ccccc1
inactive: dose: 100.0 mg/kg/injection, schedule: Q01DX001 (ip), vehicle: saline with Tween-80 109 % of control | [4] 105 % of control and 116 % of control | dose: 100.0 mg/kg/injection, schedule: Q04DX002 (ip), vehicle: saline with Tween-80 97 % of control and 89 % of control | dose: 200.0 mg/kg/injection, schedule: Q01DX001 (ip), vehicle: saline with Tween-80 108 % of control | [5] 96 % of control and 101 % of control | dose: 200.0 mg/kg/injection, schedule: Q04DX002 (ip), vehicle: saline with Tween-80 94 % of control and 90 % of control | dose: 400.0 mg/kg/injection, schedule: Q01DX001 (ip), vehicle: saline with Tween-80 111 % of control | [6] 108 % of control and 110 % of control | dose: 400.0 mg/kg/injection, schedule: Q04DX002 (ip), vehicle: saline with Tween-80 119 % of control and 87 % of control

CC(C)C[CH2][Pb]([CH2]CC(C)C)([CH2]CC(C)C)[O]C(=O)C(Cl)(Cl)Cl
inactive: dose: 3.12 mg/kg/injection, schedule: Q01DX009 (ip), vehicle: Klucel (hydroxypropylcellulose) (HPC) 98 % of control | dose: 3.12 mg/kg/injection, schedule: Q04DX002 (ip), vehicle: Klucel (hydroxypropylcellulose) (HPC) 96 % of control | dose: 6.25 mg/kg/injection, schedule: Q01DX009 (ip), vehicle: Klucel (hydroxypropylcellulose) (HPC) 95 % of control | dose: 6.25 mg/kg/injection, schedule: Q04DX002 (ip), vehicle: Klucel (hydroxypropylcellulose) (HPC) 115 % of control | dose: 12.5 mg/kg/injection, schedule: Q01DX009 (ip), vehicle: Klucel (hydroxypropylcellulose) (HPC) 98 % of control | dose: 12.5 mg/kg/injection, schedule: Q04DX002 (ip), vehicle: Klucel (hydroxypropylcellulose) (HPC) 93 % of control and 87 % of control

COc1cc(C(=O)COC(C)=O)cc2c1OC(c1ccccc1)(c1ccccc1)O2
inactive: [7] 86 % of control

Clc1ccc2c(c1)ncn1nnnc21
inactive: [8] 95 % of control | [9] 104 % of control | [10] 93 % of control

CC(O)CN1CCCCCC1 (stereo unspecified)
inactive: dose: 12.5 mg/kg/injection, schedule: Q01DX009 (ip), vehicle: saline with Tween-80 103 % of control | [11] 94 % of control | dose: 25.0 mg/kg/injection, schedule: Q04DX003 (ip), vehicle: saline with Tween-80 107 % of control | [12] 93 % of control | dose: 50.0 mg/kg/injection, schedule: Q04DX003 (ip), vehicle: saline with Tween-80 107 % of control | [13] 95 % of control

O=C(O)/C=C/C(=O)Nc1ccc(NC(=O)/C=C/C(=O)O)cc1
inactive: [13] 98 % of control | dose: 200.0 mg/kg/injection, schedule: Q04DX003 (ip), vehicle: saline with Tween-80 95 % of control | dose: 400.0 mg/kg/injection, schedule: Q04DX003 (ip), vehicle: saline with Tween-80 96 % of control

CC(=O)N(N=O)c1ccc(N(N=O)C(C)=O)cc1
inactive: dose: 5.0 mg/kg/injection, schedule: Q01DX001 (ip), vehicle: saline 106 % of control | dose: 10.0 mg/kg/injection, schedule: Q01DX001 (ip), vehicle: saline 97 % of control | dose: 20.0 mg/kg/injection, schedule: Q01DX001 (ip), vehicle: saline 112 % of control

CSc1nc(Cl)c2ccn(C)c2n1
inactive: dose: 75.0 mg/kg/injection, schedule: Q01DX001 (ip), vehicle: other 100 % of control | dose: 150.0 mg/kg/injection, schedule: Q01DX001 (ip), vehicle: other 96 % of control | dose: 300.0 mg/kg/injection, schedule: Q01DX001 (ip), vehicle: other 100 % of control

CC(C)C1c2ccccc2C(=O)C1C(N)=O (stereo unspecified)
inactive: dose: 100.0 mg/kg/injection, schedule: Q01DX001 (ip), vehicle: carboxymethylcellulose (CMC) 90 % of control | dose: 200.0 mg/kg/injection, schedule: Q01DX001 (ip), vehicle: carboxymethylcellulose (CMC) 100 % of control | dose: 400.0 mg/kg/injection, schedule: Q01DX001 (ip), vehicle: carboxymethylcellulose (CMC) 93 % of control

CC(C)(CO)CN1CCCC1
inactive: [14] 103 % of control | [7] 100 % of control

CCCCCCCCCCCC(=O)[O][Sn]([CH2]C)([CH2]C)[O]C(=O)CCCCCCCCCCC
inactive: dose: 6.25 mg/kg/injection, schedule: Q04DX003 (ip), vehicle: saline 112 % of control | dose: 8.75 mg/kg/injection, schedule: Q01DX009 (ip), vehicle: saline with Tween-80 98 % of control | dose: 12.5 mg/kg/injection, schedule: Q01DX001 (ip), vehicle: saline 103 % of control | dose: 12.5 mg/kg/injection, schedule: Q04DX003 (ip), vehicle: saline 105 % of control | dose: 17.5 mg/kg/injection, schedule: Q01DX009 (ip), vehicle: saline with Tween-80 121 % of control | dose: 25.0 mg/kg/injection, schedule: Q01DX001 (ip), vehicle: saline 109 % of control | dose: 25.0 mg/kg/injection, schedule: Q04DX003 (ip), vehicle: saline 112 % of control | dose: 35.0 mg/kg/injection, schedule: Q04DX003 (ip), vehicle: acetone 106 % of control

N#CCCNCCC#N
inactive: [15] 103 % of control | [9] 102 % of control | dose: 200.0 mg/kg/injection, schedule: Q01DX009 (ip), vehicle: saline 97 % of control | [10] 100 % of control | dose: 400.0 mg/kg/injection, schedule: Q01DX009 (ip), vehicle: saline 104 % of control | dose: 400.0 mg/kg/injection, schedule: Q04DX003 (ip), vehicle: saline 96 % of control

O=C(O)C(CSC(c1ccccc1)c1ccccc1)NC(=O)C(c1ccccc1)c1ccccc1 (stereo unspecified)
inactive: dose: 100.0 mg/kg/injection, schedule: Q01DX009 (ip), vehicle: Klucel (hydroxypropylcellulose) (HPC) 112 % of control | [1] 97 % of control | dose: 200.0 mg/kg/injection, schedule: Q01DX009 (ip), vehicle: Klucel (hydroxypropylcellulose) (HPC) 101 % of control | [2] 99 % of control | dose: 400.0 mg/kg/injection, schedule: Q01DX009 (ip), vehicle: Klucel (hydroxypropylcellulose) (HPC) 98 % of control | [3] 94 % of control

CC(C)(O)C(C)(O)c1ccc(Cl)cc1 (stereo unspecified)
inactive: [11] 93 % of control | dose: 25.0 mg/kg/injection, schedule: Q04DX003 (ip), vehicle: Klucel (hydroxypropylcellulose) (HPC) 101 % of control | [12] 102 % of control | dose: 50.0 mg/kg/injection, schedule: Q04DX003 (ip), vehicle: Klucel (hydroxypropylcellulose) (HPC) 101 % of control | [4] 98 % of control | [1] 101 % of control | [5] 104 % of control | [2] 106 % of control | [6] 94 % of control | [3] 95 % of control

Cc1cc(C)c(S(=O)(=O)O)c(Cc2cccc3ccccc23)c1
inactive: dose: 25.0 mg/kg/injection, schedule: Q01DX009 (ip), vehicle: saline 94 % of control | dose: 50.0 mg/kg/injection, schedule: Q01DX009 (ip), vehicle: saline 102 % of control | [8] 94 % of control | [14] 93 % of control | [15] 96 % of control | [9] 98 % of control | [7] 88 % of control
